The values below come from patent publication US12692247B2, “Phenyl- and pyridopyrazole derivatives as inhibitors of DDR1” (Redx Pharma Limited, priority 2021, dated 2026).

For assay [1], the target named is T1, Recombinant human DDR1 (Homo sapiens, UniProt Q08345).
T1 construct: Recombinant human DDR1 (2.5 nM; aa440-876 containing a GST tag)
In words: LanthaScreen Eu Kinase Binding Assay, DDR1. To be noted: recombinant human DDR1 (2.5 nM; aa440-876, GST tag), Kinase Tracer 178 5 nM, time-resolved fluorescence, at least two independent replicates; read-out: DDR1 pIC50 (converted). How it is done: (§1) DDR1 and DDR2 Biochemical Assay Method
(§2) The capacity of compounds to bind to DDR1 and DDR2 was quantified using a LanthaScreen Eu Kinase Binding Assay. Recombinant human DDR1 (2.5 nM; aa440-876 containing a GST tag) and DDR2 (1.75 nM; aa427-855 containing a GST tag) were diluted in assay buffer (50 mM HEPES pH7.3, 10 mM MgCl2, 1 mM EGTA and 0.01% Tween) with various concentrations of compound in a 384-well plate and a volume of 5 uL. After a 30-minute incubation at room temperature, 2.5 uL of Eu-anti GST antibody (diluted to 1 nM in assay buffer) plus Kinase Tracer 178 (diluted in assay buffer to 5 nM for DDR1 and 10 nM for DDR2) were added to the plate. Following 60-minute incubation at room temperature, time-resolved fluorescence was measured on a BMG Labtech PHERAstar plate reader. DMSO (1%) and reference compound (1 μM) were used to generate the Max and Min assay signals, respectively. Data was analysed using a four-parameter logistic model to calculate IC50 values, with at least two independent replicates were performed for each compound.

The target in assay [2] is T2, Recombinant human DDR2 (Homo sapiens, UniProt Q16832).
T2 construct: DDR2 (1.75 nM; aa427-855 containing a GST tag)
T2 sequence (Q16832 427-855): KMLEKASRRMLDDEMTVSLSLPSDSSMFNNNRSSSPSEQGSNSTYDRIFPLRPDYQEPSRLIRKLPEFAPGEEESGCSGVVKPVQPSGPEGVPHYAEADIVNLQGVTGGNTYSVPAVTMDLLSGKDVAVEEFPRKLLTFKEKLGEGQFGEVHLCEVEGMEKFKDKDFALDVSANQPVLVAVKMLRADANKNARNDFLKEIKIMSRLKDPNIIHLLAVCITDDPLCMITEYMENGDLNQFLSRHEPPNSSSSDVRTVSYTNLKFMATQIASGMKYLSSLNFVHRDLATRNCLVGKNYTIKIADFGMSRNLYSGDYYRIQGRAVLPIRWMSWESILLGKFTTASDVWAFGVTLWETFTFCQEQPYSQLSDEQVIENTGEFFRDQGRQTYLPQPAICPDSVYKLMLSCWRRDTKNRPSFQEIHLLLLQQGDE
In words: LanthaScreen Eu Kinase Binding Assay, DDR2. The conditions noted are these: recombinant human DDR2 (1.75 nM; aa427-855, GST tag), Kinase Tracer 178 10 nM, time-resolved fluorescence, at least two independent replicates; read-out: DDR2 pIC50 (converted). How it is done: as §1, §2
In general terms: Time-resolved FRET reads energy transfer from a long-lived donor to a nearby acceptor.

T1 sequence (Q08345 440-876 isoform Q08345-2): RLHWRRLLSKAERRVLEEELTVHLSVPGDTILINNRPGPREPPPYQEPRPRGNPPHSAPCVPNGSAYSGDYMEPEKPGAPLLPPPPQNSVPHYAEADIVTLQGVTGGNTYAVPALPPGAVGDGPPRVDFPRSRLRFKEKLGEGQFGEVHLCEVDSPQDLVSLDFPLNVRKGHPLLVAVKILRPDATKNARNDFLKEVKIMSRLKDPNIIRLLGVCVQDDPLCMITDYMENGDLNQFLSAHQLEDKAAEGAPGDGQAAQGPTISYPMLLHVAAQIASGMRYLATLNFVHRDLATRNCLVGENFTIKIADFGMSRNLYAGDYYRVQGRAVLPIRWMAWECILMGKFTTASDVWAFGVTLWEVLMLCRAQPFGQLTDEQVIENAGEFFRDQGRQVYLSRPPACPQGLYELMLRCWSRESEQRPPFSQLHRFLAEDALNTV

On to `C[C@@H](NC(=O)Cn1ccc2cccc(Nc3ccc4c(cnn4C)c3)c2c1=O)C(F)(F)F` [Example 20, 2-[8-[(1-methylindazol-5-yl)amino]-1-oxo-2-isoquinolyl]-N-[(1R)-2,2,2-trifluoro-1-methyl-ethyl]acetamide], for which the IC50 in assay [1] and in assay [2] was 100 to 1000 nM throughout.
For the molecule `Cn1ncc2cc(Nc3cccc4ccn(CC(=O)NC5(C(F)(F)F)CC5)c(=O)c34)ccc21` [Example 21, 2-[8-[(1-methylindazol-5-yl)amino]-1-oxo-2-isoquinolyl]-N-[1-(trifluoromethyl)cyclopropyl]acetamide], the IC50 was 10 to 100 nM in assay [1] and 100 to 1000 nM in assay [2].
For `CN(CC(F)(F)F)C(=O)Cn1ccc2cccc(Nc3ccc4c(cnn4C)c3)c2c1=O` [Example 23, N-methyl-2-[8-[(1-methylindazol-5-yl)amino]-1-oxo-2-isoquinolyl]-N-(2,2,2-trifluoroethyl)acetamide] the same measures were 10 to 100 nM and 100 to 1000 nM.
For `Cn1ncc2cc(Nc3cccc4ccn(CC(=O)Nc5cccnc5)c(=O)c34)ccc21` [Example 24, 2-[8-[(1-methylindazol-5-yl)amino]-1-oxo-2-isoquinolyl]-N-(3-pyridyl)acetamide] the same measures were 100 to 1000 nM and ≥ 1000 nM.
Turning to `Cn1ncc2cc(Nc3cccc4ccn(CC(=O)Nc5cncnc5)c(=O)c34)ccc21` [Example 25, 2-[8-[(1-methylindazol-5-yl)amino]-1-oxo-2-isoquinolyl]-N-pyrimidin-5-yl-acetamide], the IC50 in assay [1] was 100 to 1000 nM; in assay [2], ≥ 1000 nM.
For `Cn1ncc2cc(Nc3cccc4ccn(CC(=O)Nc5ccncc5)c(=O)c34)ccc21` [Example 26, 2-[8-[(1-methylindazol-5-yl)amino]-1-oxo-2-isoquinolyl]-N-(4-pyridyl)acetamide], in that order: ≥ 1000 nM and ≥ 1000 nM.
For `Cn1ncc2cc(Nc3cccc4ccn(CC(=O)Nc5ccc(C(F)(F)F)cc5)c(=O)c34)ccc21` [Example 30, 2-[8-[(1-methylindazol-5-yl)amino]-1-oxo-2-isoquinolyl]-N-[4-(trifluoromethyl)phenyl]acetamide], in that order: < 10 nM and ≥ 1000 nM.
`Cn1ncc2cc(Nc3cccc4ccn(CC(=O)Nc5cncc(C(F)(F)F)c5)c(=O)c34)ccc21` [Example 31, 2-[8-[(1-methylindazol-5-yl)amino]-1-oxo-2-isoquinolyl]-N-[5-(trifluromethyl)-3-pyridyl]acetamide]: the IC50 in assay [1] and in assay [2] was < 10 nM in each case.
Turning to `CC(=O)c1cccc(NC(=O)Cn2ccc3cccc(Nc4ccc5c(cnn5C)c4)c3c2=O)c1` [Example 32, N-(3-acetylphenyl)-2-[8-[(1-methylindazol-5-yl)amino]-1-oxo-2-isoquinolyl]acetamide], the IC50 is < 10 nM in assay [1] and 10 to 100 nM in assay [2].
For `Cn1ncc2cc(Nc3cccc4ccn(CC(=O)NC(C5CC5)C(F)(F)F)c(=O)c34)ccc21` (stereo not shown) [Example 33, N-(1-cyclopropyl-2,2,2-trifluoro-ethly)-2-[8-[(1-methylindazol-5-yl)amino]-1-oxo-2-isoquinolyl]acetamide] the same measures were 10 to 100 nM and 100 to 1000 nM.
For `Cn1ccc(NC(=O)Cn2ccc3cccc(Nc4ccc5c(cnn5C)c4)c3c2=O)n1` [Example 34, 2-[8-[(1-methylindazol-5-yl)amino]-1-oxo-2-isoquinolyl]-N-(1-methylpyrazol-3-yl)acetamide], in that order: 100 to 1000 nM and ≥ 1000 nM.
For `Cn1ncc2cc(Nc3cccc4ccn(CC(=O)NC(c5ccccc5)C(F)(F)F)c(=O)c34)ccc21` (stereo not shown) [Example 35, 2-[8-[(1-methylindazol-5-yl)amino]-1-oxo-2-isoquinolyl]-N-(2,2,2-trifluoro-1-phenyl-ethyl)acetamide] the same measures were 10 to 100 nM and 100 to 1000 nM.
For the molecule `Cn1nccc1NC(=O)Cn1ccc2cccc(Nc3ccc4c(cnn4C)c3)c2c1=O` [Example 36, 2-[8-[(1-methylindazol-5-yl)amino]-1-oxo-2-isoquinolyl]-N-(2-methylpyrazol-3-yl)acetamide], the IC50 in assay [1] was 10 to 100 nM; in assay [2], 100 to 1000 nM.
Turning to `Cn1ncc2cc(Nc3cccc4ccn(CC(=O)Nc5cnoc5)c(=O)c34)ccc21` [Example 37, N-isoxazol-4-yl-2-[8-[(1-methylindazol-5-yl)amino]-1-oxo-2-isoquinolyl]acetamide], the IC50 is < 10 nM in assay [1] and 10 to 100 nM in assay [2].
For `Cn1ncc2cc(Nc3cccc4ccn(CC(=O)Nc5cccc(C(C)(C)O)c5)c(=O)c34)ccc21` [Example 38, N-[3-(1-hydroxy-1-methyl-ethyl)phenyl]-2-[8-[(1-methylindazol-5-yl)amino]-1-oxo-2-isoquinolyl]acetamide] the same measures were < 10 nM and 10 to 100 nM.
On to `Cn1ncc2cc(Nc3cccc4ccn(CC(=O)Nc5ccccc5)c(=O)c34)ccc21` [Example 39, 2-[8-[(1-methylindazol-5-yl)amino]-1-oxo-2-isoquinolyl]-N-phenyl-acetamide], for which the IC50 was 10 to 100 nM in assay [1] and ≥ 1000 nM in assay [2].
In the case of `Cn1cc(NC(=O)Cn2ccc3cccc(Nc4ccc5c(cnn5C)c4)c3c2=O)cn1` [Example 41, 2-[8-[(1-methylindazol-5-yl)amino]-1-oxo-2-isoquinolyl]-N-(1-methylpyrazol-4-yl)acetamide], the IC50 is 100 to 1000 nM in assay [1] and ≥ 1000 nM in assay [2].
Take `Cn1ncc2cc(Nc3cccc4ccn(CC(=O)NC5(C(F)(F)F)CCCC5)c(=O)c34)ccc21` [Example 42, 2-[8-[(1-methylindazol-5-yl)amino]-1-oxo-2-isoquinolyl]-N-[1-(trifluoromethyl)cyclopentyl]acetamide]: the IC50 in assay [1] was 10 to 100 nM; in assay [2], 100 to 1000 nM.
For `Cn1ncc2cc(Nc3cccc4ccn(CC(=O)N5CCOC(C(F)(F)F)C5)c(=O)c34)ccc21` (stereo not shown) [Example 43, 8-[(1-methylindazol-5-yl)aminio]-2-[2-oxo-2-[2-(trifluoromethyl)morpholin-4-yl]ethyl]isoquinolin-1-one], in that order: 10 to 100 nM and ≥ 1000 nM.
For `Cn1ncc2cc(Nc3cccc4ccn(CC(=O)NCCC(F)(F)F)c(=O)c34)ccc21` [Example 44, 2-[8-[(1-methylindazol-5-yl)amino]-1-oxo-2-isoquinolyl]-N-(3,3,3-trifluoropropyl)acetamide] the same measures were 100 to 1000 nM and ≥ 1000 nM.
As for `CC[C@H](NC(=O)Cn1ccc2cccc(Nc3ccc4c(cnn4C)c3)c2c1=O)C(F)(F)F` [Example 45, 2-[8-[(1-methylindazol-5-yl)amino]-1-oxo-2-isoquinolyl]-N-[(1S)-1-(trifluoromethyl)propyl]acetamide], the IC50 in assay [1] and in assay [2] was 10 to 100 nM each time.
As to `CC(C)[C@H](NC(=O)Cn1ccc2cccc(Nc3ccc4c(cnn4C)c3)c2c1=O)C(F)(F)F` [Example 46, 2-[8-[(1-methylindazol-5-yl)amino]-1-oxo-2-isoquinolyl]-N-[(S)-2-methyl-1-(trifluoromethyl)propyl]acetamide], the IC50 in assay [1] and in assay [2] was 10 to 100 nM throughout.
Turning to `Cn1ncc2cc(Nc3cc(F)cc4ccn(CC(=O)NCC(F)(F)F)c(=O)c34)ccc21` [Example 47, 2-[6-fluoro-8-[(1-methylindazol-5-yl)amino]-1-oxo-2-isoquinolyl]-N-(2,2,2-trifluoroethyl) acetamide], the IC50 in assay [1] is 100 to 1000 nM; in assay [2], ≥ 1000 nM.
`Cn1ncc2cc(Nc3cccc4ccn(CC(=O)Nc5cc(C(F)(F)F)no5)c(=O)c34)ccc21` [Example 48, 2-[8-[(1-methylindazol-5-yl)amino]-1-oxo-2-isoquinolyl]-N-[3-(trifluoromethyl)isoxazol-5-yl]acetamide]: the IC50 in assay [1] and in assay [2] was 10 to 100 nM each time.
`Cn1ncc2cc(Nc3cccc4ccn(CC(=O)N5CCC[C@H]5C(F)(F)F)c(=O)c34)ccc21` [Example 49]: the IC50 in assay [1] was < 10 nM; in assay [2], 10 to 100 nM.
For `Cn1ncc2cc(Nc3cccc4ccn(CC(=O)NC(CO)C(F)(F)F)c(=O)c34)ccc21` (stereo not shown) [Example 50, 2-[8-[(1-methylindazol-5-yl)amino]-1-oxo-2-isoquinolyl]-N-[2,2,2-trifluoro-1-(hydroxymethyl)ethyl)acetamide] the same measures were ≥ 1000 nM and ≥ 1000 nM.
